Values of other authors as cited in PMC3328449, “Inhibition of Diacylglycerol–Sensitive TRPC Channels by Synthetic and Natural Steroids” (PLoS ONE, 2012).

How the values were obtained:
TRPC3 = test system: TRPC3; design: method as in PMID 19289841; conditions: read-out: half maximal inhibitory concentration (IC50), TRPC3; cited from earlier work
other TRPC channels = test system: other TRPC channels; design: method as in PMID 19289841; conditions: cited from earlier work

For CCOC(=O)c1cnn(-c2ccc(NC(=O)C(Cl)=C(Cl)Cl)cc2)c1C(F)(F)F [Pyr3], the IC50 (TRPC3) is given as 700 nM and the “Effects on other TRPC channels” value (other TRPC channels) is given as “without having effects”.
